Laboratory results reported in patent publication US12390467B2, “Necroptosis inducers or autophagy inhibitors or a combination thereof” (The University of Toledo, priority 2018, dated 2025).

Key:
Assay type in all cases: cell-based
[1] = tested on: MDA-MB231 (TNBC cell line); test: MTT cell viability assay, MDA-MB231; conditions: Homo sapiens, MDA-MB-231, 72 h, read-out: IC50 ± SD, MDA-MB231
Experimental: (§1) The following cancer and non-cancer cell lines were used in the initial cytotoxicity screening of the TPH104 compounds: triple negative breast cancer (TNBC): MDA-MB468, MDA-MB 231, and BT-20; non-TNBC: MCF-7 and ZR-75-1; ovarian: Ov2008; prostate: DU145; colon: HCT-116, S1, and LOVO; lung: H460; normal kidney: HEK-293; normal breast: HMEC; and normal colon: CRL-1459. All cells were cultured in Dulbecco's modified Eagle medium (DMEM), supplemented with 10% fetal bovine serum (FBS), and 1% penicillin/streptomycin (P/S). Cells were allowed to grow as adherent monolayers in T25 flasks in a humidified incubator with 5% CO2 at 37° C. for a period of 24 h, unless otherwise specified for certain experiments.
(§2) The MTT assay was used to determine the cytotoxicity of all of the compounds. Briefly, in a 96-well flat-bottom cell culture plate, the cells were seeded at a density between 3-5×10^3 cells/well (180 μl in each well) and incubated for 24 h (a hemocytometer was used for cell counting). The next day, the cells were incubated with different concentrations of the nine compounds (0, 0.1, 0.3, 1, 3, 10, 30, and 100 μM) for 72 h. After 72 h, 20 μl of 5 mg/ml of 3-(4,5-dimethylthiazol-2-yl)-2,5-diphenyltetrazolium bromide (MTT) was added to the plate and incubated with the cells for 3 h at 37° C. In this experiment, the living cells will reduce the soluble MTT dye to non-soluble purple formazan crystals. Following incubation, the media containing MTT removed via suction and 100 μL of 100% dimethyl sulfoxide (DMSO) was added to dissolve the formazan crystals. Subsequently, the plate was shaken for 2 minutes and the absorbance was measured at a wavelength of 570 nm using a SpectraMax iD3 Multi-Mode Microplate Reader (Molecular Devices, Sunnyvale, CA). The IC50 values of each compound were calculated and used to determine the selectivity ratio (IC50 in normal cells/IC50 in cancer cells) of each compound as previously described. Based on the results obtained from these experiments, the compound TPH104, which had the lowest IC50 value, was selected for further experiments.

[2] = tested on: MDA-MB468 (TNBC cell line); test: MTT cell viability assay, MDA-MB468; conditions: Homo sapiens, MDA-MB-468, 72 h, read-out: IC50 ± SD, MDA-MB468
Experimental: as §1, §2

[3] = tested on: ZR-75-1 (non-TNBC cell line); test: MTT cell viability assay, ZR-75-1; conditions: Homo sapiens, ZR-75-1, 72 h, read-out: IC50 ± SD, ZR-75-1
Experimental: as §1, §2

[4] = tested on: MCF-7 (non-TNBC cell line); test: MTT cell viability assay, MCF-7; conditions: Homo sapiens, MCF7, 72 h, read-out: IC50 ± SD, MCF-7
Experimental: as §1, §2

[5] = tested on: normal human mammary epithelial cells (HMEC); test: MTT cell viability assay, HMEC; conditions: Homo sapiens, HMEC; MTT, 72 h; Normal; read-out: IC50 ± SD, HMEC
Experimental: as §1, §2

TNBC cell lines = test: Cytotoxicity screening (MTT), TNBC cell lines overall; conditions: classification of Table 1 cytotoxicity data
From the text: To this end, several commercial databases were searched, and 17 similar molecules from the VitasM database were retrieved with considerable structural diversity in terms of the substitution on the aryl ring A attached to the thienopyrimidine scaffold and aryl ring B attached to hydrazino moiety. Further, the biological evaluation of the 17 molecules sheds light on the structural features deemed important for the selective cytotoxicity shown by this class of molecules. With this understanding, the 17 molecules were subjected to a screening protocol comprising of two TNBC, two non-TNBC, and one normal cell lines.
as §1, §2

Compound	IC50 [1] [µM]	IC50 [2] [µM]	IC50 [3] [µM]	IC50 [4] [µM]	IC50 [5] [µM]	potency compared to TPH104 (TNBC cell lines)
Oc1ccccc1/C=N/Nc1ncnc2scc(-c3ccc(Cl)cc3)c12 [TPH104a]	0.28 ± 0.06	0.44 ± 0.26	2.29 ± 0.23	6.96 ± 1.15	27.9 ± 8.95	comparable potency to that of TPH104
Oc1c(/C=N/Nc2ncnc3scc(-c4ccccc4)c23)cc2c3c1CCCN3CCC2 [TPH104b]	0.25 ± 0.02	0.23 ± 0.05	1.18 ± 0.53	1.52 ± 0.57	> 100	equipotent to TPH104
COc1cccc(/C=N/Nc2ncnc3scc(-c4ccccc4)c23)c1O [TPH104c]	0.23 ± 0.01	0.18 ± 0.02	10.7 ± 1.1	> 100	> 100	equipotent to TPH104
Cc1ccc(-c2csc3ncnc(N/N=C/c4ccccc4O)c23)cc1 [TPH104d]	2.29 ± 0.16	2.22 ± 1.82	6.05 ± 2.02	> 100	33.1 ± 2.33	moderate potency compared to TPH104
COc1cc(OC)c(OC)cc1/C=N/Nc1ncnc2scc(-c3ccccc3)c12 [TPH104e]	> 100	> 100	> 100	> 100	> 100	poor or no potency
COc1ccccc1/C=N/Nc1ncnc2scc(-c3ccccc3)c12 [TPH104f]	29.38 ± 0.08	7.87 ± 1.53	> 100	> 100	> 100	poor or no potency
COc1ccc(/C=N/Nc2ncnc3scc(-c4ccc(C)cc4)c23)c(OC)c1OC [TPH104g]	27.64 ± 0.15	27.3 ± 4.53	28.9 ± 2.61	27.2 ± 2.92	> 100	poor or no potency
COc1cccc(/C=N/Nc2ncnc3scc(-c4ccccc4)c23)c1OC [TPH104h]	96.7 ± 0.14	> 100	> 100	63 ± 2.89	> 100	poor or no potency
COc1ccc(/C=N/Nc2ncnc3scc(-c4ccccc4)c23)c(OC)c1 [TPH104i]	> 100	> 100	> 100	> 100	> 100	poor or no potency
Oc1ccccc1/C=N/Nc1ncnc2scc(-c3ccccc3)c12 [TPH104j]	0.78 ± 0.28	0.56 ± 0.34	3.42 ± 1.53	2.84 ± 0.96	4.52 ± 1.38	moderate potency compared to TPH104
Oc1cc(Br)ccc1/C=N/Nc1ncnc2scc(-c3ccccc3)c12 [TPH104k]	1.29 ± 0.52	0.91 ± 0.09	6.07 ± 5.18	15.6 ± 6.5	> 100	moderate potency compared to TPH104
Oc1ccc(/C=N/Nc2ncnc3scc(-c4ccccc4)c23)c(O)c1 [TPH104l]	0.78 ± 0.38	1.47 ± 0.84	8.68 ± 1.04	6.59 ± 0.58	> 100	moderate potency compared to TPH104
CCOc1cc(/C=N/Nc2ncnc3scc(-c4ccccc4)c23)ccc1O [TPH104n]	23.1 ± 1.88	21.7 ± 0.3	21.5 ± 3.67	> 100	> 100	poor or no potency
Cc1ccc(-c2csc3ncnc(N/N=C/c4ccc(C)cc4O)c23)cc1 [TPH104o]	0.43 ± 0.19	0.56 ± 0.24	1.04 ± 0.54	1.22 ± 0.6	> 100	moderate potency compared to TPH104
COc1cc(OC)c(OC)cc1/C=N/Nc1ncnc2scc(-c3ccc(Cl)cc3)c12 [TPH104p]	62.2 ± 8.83	55.9 ± 0.98	23 ± 0.59	> 100	> 100	poor or no potency
